From ChEMBL document CHEMBL1817628, “Structure-based design of new DHFR-based antibacterial agents: 7-aryl-2,4-diaminoquinazolines” (Bioorg Med Chem Lett, 2011)
Converted amounts (≈) assume the structure as drawn.

Key:
[1] = test system: Haemophilus influenzae; assay: Antibacterial activity against ampicillin-resistant Haemophilus influenzae ATCC 49247 by CLSI microdilution method; type: functional
[2] = test system: Escherichia coli; assay: Antibacterial activity against Escherichia coli ATCC 35218 by CLSI microdilution method; type: functional
[3] = biological target: Dihydrofolate reductase (Staphylococcus aureus, UniProt P0A017); assay: Inhibition of Staphylococcus aureus DHFR assessed as oxidation of NADPH using dihydrofolate as substrate pre-incubated for 10 mins before substrate addition by spectrophotometry
[4] = test system: Staphylococcus aureus; assay: Antibacterial activity against Staphylococcus aureus Smith ATCC 13709 in presence of 20% mouse serum by CLSI microdilution method; type: functional
[5] = test system: Enterococcus faecalis; assay: Antibacterial activity against Enterococcus faecalis ATCC 29212 by CLSI microdilution method; type: functional
[6] = Inhibition of Haemophilus influenzae DHFR assessed as oxidation of NADPH using dihydrofolate as substrate pre-incubated for 10 mins before substrate addition by spectrophotometry
[7] = biological target: T1, Dihydrofolate reductase (Homo sapiens, UniProt P00374); assay: Inhibition of human DHFR assessed as oxidation of NADPH using dihydrofolate as substrate pre-incubated for 10 mins before substrate addition by spectrophotometry
T1 sequence (P00374 whole entry): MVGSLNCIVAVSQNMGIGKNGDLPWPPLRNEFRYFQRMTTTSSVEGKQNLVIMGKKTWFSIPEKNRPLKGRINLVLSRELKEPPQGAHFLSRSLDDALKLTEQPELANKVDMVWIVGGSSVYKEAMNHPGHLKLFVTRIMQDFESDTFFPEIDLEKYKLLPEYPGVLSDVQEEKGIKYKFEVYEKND

[8] = test system: Staphylococcus aureus; assay: Antibacterial activity against Staphylococcus aureus Smith ATCC 13709 by CLSI microdilution method; type: functional
[9] = test system: Staphylococcus aureus; assay: Antibacterial activity against TMP-resistant Staphylococcus aureus harboring DHFR F99Y mutant by CLSI microdilution method; type: functional
[10] = biological target: Dihydrofolate reductase (Staphylococcus aureus, UniProt P0A017, F99Y); assay: Inhibition of TMP-resistant Staphylococcus aureus DHFR F99Y mutant assessed as oxidation of NADPH using dihydrofolate as substrate pre-incubated for 10 mins before substrate addition by spectrophotometry

Structure (SMILES) | MIC [1] [µg/mL] | MIC [2] [µg/mL] | Ki [3] [pM] | MIC [4] [µg/mL] | MIC [5] [µg/mL] | Ki [6] [pM] | Ki [7] [pM] | MIC [8] [µg/mL] | MIC [9] [µg/mL] | Ki [10] [pM]
CCOc1ccc(Br)cc1-c1cc2nc(N)nc(N)c2cc1C | 32 (≈ 85.7 µM) | 32 (≈ 85.7 µM) | 760 | 8 | 0.5 (≈ 1.34 µM) | 44 | 11100 | 1 (≈ 2.68 µM) | – | –
CS(=O)(=O)c1ccc(-c2ccc3c(N)nc(N)nc3c2)cc1 | 16 (≈ 50.9 µM) | > 64 | 5000 | 8 | 16 (≈ 50.9 µM) | 220 | 253000 | 8 (≈ 25.4 µM) | – | –
CCOc1ccc(C)cc1-c1cc2nc(N)nc(N)c2cc1C | 16 (≈ 51.9 µM) | 16 (≈ 51.9 µM) | 850 | 4 | 0.5 (≈ 1.62 µM) | 34 | 22200 | 1 (≈ 3.24 µM) | – | –
Nc1nc(N)c2ccc(-c3ccccc3)cc2n1 | 16 (≈ 67.7 µM) | 16 (≈ 67.7 µM) | 9100 | 64 | 8 (≈ 33.9 µM) | 520 | 743000 | 8 (≈ 33.9 µM) | – | –
Cc1cc2c(N)nc(N)nc2cc1-c1ccccc1C(C)C | 8 (≈ 27.4 µM) | 16 (≈ 54.7 µM) | 130 | 1 | 0.5 (≈ 1.71 µM) | 37 | 20900 | 0.25 (≈ 0.855 µM) | – | –
COc1ccccc1-c1ccc2c(N)nc(N)nc2c1 | 16 (≈ 60.1 µM) | 32 (≈ 120 µM) | – | 4 | 4 (≈ 15 µM) | 210 | – | 2 (≈ 7.51 µM) | – | –
CC(=O)c1cccc(-c2ccc3c(N)nc(N)nc3c2)c1 | 64 (≈ 230 µM) | 32 (≈ 115 µM) | – | 8 | 4 (≈ 14.4 µM) | 310 | – | 4 (≈ 14.4 µM) | – | –
COc1ccc(-c2cc3nc(N)nc(N)c3cc2C)cc1OC | 4 (≈ 12.9 µM) | 8 (≈ 25.8 µM) | 350 | 0.5 | 0.5 (≈ 1.61 µM) | 1.8 | 12200 | 0.5 (≈ 1.61 µM) | – | –
CCOc1ccc(-c2cccnc2)cc1-c1ccc2c(N)nc(N)nc2c1 | 16 (≈ 44.8 µM) | > 16 | 300 | 8 | 0.5 (≈ 1.4 µM) | 11 | 10100 | 0.5 (≈ 1.4 µM) | – | –
CC(=O)c1cccc(-c2cc3nc(N)nc(N)c3cc2C)c1 | 1 (≈ 3.42 µM) | 4 (≈ 13.7 µM) | – | 1 | 0.5 (≈ 1.71 µM) | 6 | – | 0.5 (≈ 1.71 µM) | – | –
CCOc1ccc(-c2cccc(NS(C)(=O)=O)c2)cc1-c1ccc2c(N)nc(N)nc2c1 | 8 (≈ 17.8 µM) | 64 (≈ 142 µM) | – | 2 | 0.5 (≈ 1.11 µM) | 4.9 | – | 0.5 (≈ 1.11 µM) | – | –
COc1cc(Cc2cnc(N)nc2N)cc(OC)c1OC [TRIMETHOPRIM] | 0.5 (≈ 1.72 µM) | 1 (≈ 3.44 µM) | – | 1 | 0.5 (≈ 1.72 µM) | 190 | – | 1 (≈ 3.44 µM) | 32 (≈ 110 µM) | –
Nc1ccc(-c2ccc3c(N)nc(N)nc3c2)cc1 | 4 (≈ 15.9 µM) | 32 (≈ 127 µM) | – | 2 | 8 (≈ 31.8 µM) | 160 | – | 4 (≈ 15.9 µM) | – | –
CCOc1ccc(C=O)cc1-c1cc2nc(N)nc(N)c2cc1C | 2 (≈ 6.2 µM) | 16 (≈ 49.6 µM) | 240 | 1 | 0.5 (≈ 1.55 µM) | 220 | 12000 | 1 (≈ 3.1 µM) | – | –
Cc1cc2c(N)nc(N)nc2cc1-c1ccc(S(C)(=O)=O)cc1 | 8 (≈ 24.4 µM) | 32 (≈ 97.4 µM) | 1200 | 1 | 1 (≈ 3.05 µM) | 2.3 | 44100 | 2 (≈ 6.09 µM) | – | –
CCOc1ccc2ccccc2c1-c1cc2nc(N)nc(N)c2cc1C | 16 (≈ 46.5 µM) | 16 (≈ 46.5 µM) | – | 0.5 | 0.5 (≈ 1.45 µM) | 15 | – | 0.125 (≈ 0.363 µM) | 1 (≈ 2.9 µM) | 2400
CCOc1ccc2[nH]ccc2c1-c1cc2nc(N)nc(N)c2cc1C | 16 (≈ 48 µM) | 8 (≈ 24 µM) | 610 | 1 | 0.25 (≈ 0.75 µM) | 82 | 245000 | 0.25 (≈ 0.75 µM) | – | –
CCc1ccccc1-c1cc2nc(N)nc(N)c2cc1C | 8 (≈ 28.7 µM) | 8 (≈ 28.7 µM) | 190 | 0.5 | 0.25 (≈ 0.898 µM) | 32 | 41100 | 0.25 (≈ 0.898 µM) | – | –
Cc1cc2c(N)nc(N)nc2cc1-c1ccc(N)cc1 | 2 (≈ 7.54 µM) | 8 (≈ 30.2 µM) | – | 1 | 0.5 (≈ 1.88 µM) | 1.8 | – | 1 (≈ 3.77 µM) | – | –
Cc1ccccc1-c1cc2nc(N)nc(N)c2cc1C | 4 (≈ 15.1 µM) | 8 (≈ 30.3 µM) | 770 | 2 | 0.5 (≈ 1.89 µM) | 37 | 95600 | 0.5 (≈ 1.89 µM) | – | –
COc1ccc(OC)c(-c2cc3nc(N)nc(N)c3cc2C)c1 | 8 (≈ 25.8 µM) | 16 (≈ 51.6 µM) | – | 1 | 4 (≈ 12.9 µM) | 14 | – | 1 (≈ 3.22 µM) | – | –
CCOc1ccccc1-c1ccc2c(N)nc(N)nc2c1 | 16 (≈ 57.1 µM) | 32 (≈ 114 µM) | 3100 | 8 | 4 (≈ 14.3 µM) | 270 | 85000 | 4 (≈ 14.3 µM) | – | –
CCOc1ccc(Cl)cc1-c1cc2nc(N)nc(N)c2cc1C | 8 (≈ 24.3 µM) | 8 (≈ 24.3 µM) | 380 | 2 | 0.5 (≈ 1.52 µM) | 23 | 11100 | 1 (≈ 3.04 µM) | – | –
CCOc1ccc(C(=O)N(CC)CC)cc1-c1cc2nc(N)nc(N)c2cc1C | 64 (≈ 163 µM) | 64 (≈ 163 µM) | – | 0.5 | 0.5 (≈ 1.27 µM) | 13 | – | 0.5 (≈ 1.27 µM) | 8 (≈ 20.3 µM) | 6000
COc1cc(Cc2cnc(N)nc2N)c2c(c1OC)OC(C1CC1)C=C2 (configuration not stated) | 1 (≈ 2.82 µM) | 4 (≈ 11.3 µM) | – | 0.13 | 0.03 (≈ 0.0846 µM) | 7 | – | 0.13 (≈ 0.367 µM) | 2 (≈ 5.64 µM) | –
Cc1cc2c(N)nc(N)nc2cc1-c1ccccc1 | 2 (≈ 7.99 µM) | 8 (≈ 32 µM) | 1600 | 2 | 0.5 (≈ 2 µM) | 7.3 | 129000 | 1 (≈ 4 µM) | – | –
